What was measured:
Assay in all cases: relative viability (nuclei count vs DMSO), 5 days (fraction); higher = more cells survive
IPA-3 + Lapatinib = compound: C1=CC=C2C(=C1)C=CC(=C2SSC3=C(C=CC4=CC=CC=C43)O)O [IPA-3] + CS(=O)(=O)CCNCc1ccc(-c2ccc3ncnc(Nc4ccc(OCc5cccc(F)c5)c(Cl)c4)c3c2)o1 [Lapatinib] (partner 2 µM)
Summary of the method: (§1)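 The day after seeding in 1536-well plates, lung cancer cell lines were treated by pin tool with a single drug, or with a fixed anchor-drug dose together with five library-drug doses (not always all listed) in √10 steps. After 5 days, a combined fix-and-stain solution (final 0.05% Triton X-100, 1% formaldehyde, 1 ug/ml Hoechst) was added. Nuclei counted on 4× images gave relative viability as treated counts over vehicle counts, reported as the median of duplicate plates.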

Doramapimod + Trametinib = compound: Cc1ccc(-n2nc(C(C)(C)C)cc2NC(=O)Nc2ccc(OCCN3CCOCC3)c3ccccc23)cc1 [Doramapimod] + CC(=O)Nc1cccc(-n2c(=O)n(C3CC3)c(=O)c3c(Nc4ccc(I)cc4F)n(C)c(=O)c(C)c32)c1 [Trametinib] (partner 0.02 µM)
Summary of the method: as §1

Doramapimod + Lapatinib = compound: Cc1ccc(-n2nc(C(C)(C)C)cc2NC(=O)Nc2ccc(OCCN3CCOCC3)c3ccccc23)cc1 [Doramapimod] + CS(=O)(=O)CCNCc1ccc(-c2ccc3ncnc(Nc4ccc(OCc5cccc(F)c5)c(Cl)c4)c3c2)o1 [Lapatinib] (partner 2 µM)
Summary of the method: as §1

Doramapimod + Dasatinib = compound: Cc1ccc(-n2nc(C(C)(C)C)cc2NC(=O)Nc2ccc(OCCN3CCOCC3)c3ccccc23)cc1 [Doramapimod] + Cc1nc(Nc2ncc(C(=O)Nc3c(C)cccc3Cl)s2)cc(N2CCN(CCO)CC2)n1 [Dasatinib] (partner 0.075 µM)
Summary of the method: as §1

Row | Cell Line | relative viability (IPA-3 + Lapatinib; first compound 0.2 µM) | relative viability (IPA-3 + Lapatinib; first compound 0.6325 µM) | relative viability (IPA-3 + Lapatinib; first compound 2 µM) | relative viability (IPA-3 + Lapatinib; first compound 6.325 µM) | relative viability (IPA-3 + Lapatinib; first compound 20 µM) | relative viability (Doramapimod + Trametinib; first compound 0.02 µM) | relative viability (Doramapimod + Trametinib; first compound 0.06325 µM) | relative viability (Doramapimod + Trametinib; first compound 0.2 µM) | relative viability (Doramapimod + Trametinib; first compound 0.6325 µM) | relative viability (Doramapimod + Trametinib; first compound 2 µM) | relative viability (Doramapimod + Lapatinib; first compound 0.02 µM) | relative viability (Doramapimod + Lapatinib; first compound 0.06325 µM) | relative viability (Doramapimod + Lapatinib; first compound 0.2 µM) | relative viability (Doramapimod + Lapatinib; first compound 0.6325 µM) | relative viability (Doramapimod + Lapatinib; first compound 2 µM) | relative viability (Doramapimod + Dasatinib; first compound 0.02 µM) | relative viability (Doramapimod + Dasatinib; first compound 0.06325 µM) | relative viability (Doramapimod + Dasatinib; first compound 0.2 µM) | relative viability (Doramapimod + Dasatinib; first compound 0.6325 µM) | relative viability (Doramapimod + Dasatinib; first compound 2 µM)
1 | LXF-289 | 0.976 | 0.869 | 0.973 | 0.941 | 0.931 | 0.684 | 0.647 | 0.676 | 0.665 | 0.657 | 0.851 | 0.924 | 0.912 | 0.871 | 0.834 | 0.229 | 0.216 | 0.207 | 0.252 | 0.247
2 | PC-3 [JPC-3] | 0.494 | 0.467 | 0.422 | 0.504 | 0.457 | 0.849 | 0.726 | 0.748 | 0.839 | 0.845 | 0.475 | 0.433 | 0.432 | 0.485 | 0.348 | 1 | 1.04 | 0.939 | 1.05 | 1.02
3 | CAL-12T | 0.919 | 0.651 | 0.761 | 0.643 | 0.756 | 0.333 | 0.325 | 0.342 | 0.402 | 0.297 | 0.674 | 0.557 | 0.676 | 0.611 | 0.623 | 0.521 | 0.371 | 0.306 | 0.44 | 0.348
4 | COR-L 105 | 0.384 | 0.374 | 0.359 | 0.325 | 0.304 | 0.391 | 0.419 | 0.478 | 0.462 | 0.318 | 0.368 | 0.385 | 0.37 | 0.336 | 0.367 | 0.316 | 0.305 | 0.302 | 0.376 | 0.367
5 | NCI-H2347 | 1.08 | 0.938 | 0.99 | 0.945 | 0.935 | 0.281 | 0.23 | 0.249 | 0.26 | 0.261 | 0.932 | 0.897 | 0.969 | 0.67 | 0.875 | 0.351 |  | 0.291 | 0.319 | 0.282
6 | NCI-H2126 | 0.792 | 0.76 | 0.771 | 0.75 | 0.792 | 0.551 | 0.546 | 0.571 | 0.637 | 0.524 | 0.815 | 0.811 | 0.781 | 0.735 | 0.662 | 0.59 | 0.661 | 0.577 | 0.544 | 0.497
7 | NCI-H838 | 1.55 | 0.964 | 0.941 | 1.01 | 1.07 | 0.493 | 0.549 | 0.506 | 0.56 | 0.411 | 0.982 | 0.996 | 1.19 | 1.27 | 0.843 | 0.279 | 0.327 | 0.315 | 0.326 | 0.298
8 | A549 | 1.07 | 0.897 | 1.01 | 1 | 0.981 |  |  |  |  |  | 0.827 | 0.989 | 0.932 | 1.24 | 0.895 |  |  |  |  | 
9 | NCI-H1648 |  |  |  |  |  | 0.435 | 0.46 | 0.508 | 0.582 | 0.402 |  |  |  |  |  |  |  |  |  | 
10 | NCI-H1623 |  |  |  |  |  |  |  |  |  |  |  |  |  |  |  | 0.534 | 0.522 | 0.497 | 0.495 | 0.521

— the supplement of paper PMC10307832
